Assay results reported in patent US11420973B2, “Amide substituted indole compounds useful as TLR inhibitors” (BRISTOL-MYERS SQUIBB COMPANY, priority 2017, dated 2022).

Experiments:
human TLR7 = human TLR7 (Homo sapiens (Human), UniProt Q9NYK1); assay: TLR7 inhibition reporter assay (HEK-Blue SEAP reporter, gardiquimod stimulation); type: cell-based; conditions: HEK-Blue cells overexpressing human TLR7, gardiquimod 7.5 μM
Description: (§1) HEK-Blue™-cells (Invivogen) overexpressing human TLR7, TLR8 or TLR9 receptors were used for screening inhibitors of these receptors using an inducible SEAP (secreted embryonic alkaline phosphatase) reporter gene under the control of the IFN-β minimal promoter fused to five NF-κB and AP-1-binding sites. Briefly, cells are seeded into Greiner 384 well plates (15000 cells per well for TLR7, 20,000 for TLR8 and 25,000 for TLR9) and then treated with test compounds in DMSO to yield a final dose response concentration range of 0.05 nM-50 μM. After a 30 minute compound pre-treatment at room temperature, the cells are then stimulated with a TLR7 ligand (gardiquimod at a final concentration of 7.5 μM), TLR8 ligand (R848 at a final concentration of 15.9 μM) or TLR9 ligand (ODN2006 at a final concentration of 5 nM) to activate NF-κB and AP-1 which induce the production of SEAP. After a 22 hour incubation at 37° C., 5% CO2, SEAP levels are determined with the addition of HEK-Blue™ Detection reagent (Invivogen), a cell culture medium that allows for detection of SEAP, according to manufacturer's specifications.

human TLR8 = human TLR8 (Homo sapiens (Human), UniProt Q9NR97); assay: TLR8 inhibition reporter assay (HEK-Blue SEAP reporter, R848 stimulation); conditions: read-out: TLR8 IC50; HEK-Blue cells overexpressing human TLR8, R848 15.9 μM, SEAP reporter;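 note: SEAP driven by IFN-β minimal promoter with NF-κB and AP-1 sites, 22 h incubation, compounds 0.05 nM–50 µM, inhibition scaled between agonist plus DMSO and reference inhibitor wells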
human TLR8, sequence (Q9NR97 27-1041): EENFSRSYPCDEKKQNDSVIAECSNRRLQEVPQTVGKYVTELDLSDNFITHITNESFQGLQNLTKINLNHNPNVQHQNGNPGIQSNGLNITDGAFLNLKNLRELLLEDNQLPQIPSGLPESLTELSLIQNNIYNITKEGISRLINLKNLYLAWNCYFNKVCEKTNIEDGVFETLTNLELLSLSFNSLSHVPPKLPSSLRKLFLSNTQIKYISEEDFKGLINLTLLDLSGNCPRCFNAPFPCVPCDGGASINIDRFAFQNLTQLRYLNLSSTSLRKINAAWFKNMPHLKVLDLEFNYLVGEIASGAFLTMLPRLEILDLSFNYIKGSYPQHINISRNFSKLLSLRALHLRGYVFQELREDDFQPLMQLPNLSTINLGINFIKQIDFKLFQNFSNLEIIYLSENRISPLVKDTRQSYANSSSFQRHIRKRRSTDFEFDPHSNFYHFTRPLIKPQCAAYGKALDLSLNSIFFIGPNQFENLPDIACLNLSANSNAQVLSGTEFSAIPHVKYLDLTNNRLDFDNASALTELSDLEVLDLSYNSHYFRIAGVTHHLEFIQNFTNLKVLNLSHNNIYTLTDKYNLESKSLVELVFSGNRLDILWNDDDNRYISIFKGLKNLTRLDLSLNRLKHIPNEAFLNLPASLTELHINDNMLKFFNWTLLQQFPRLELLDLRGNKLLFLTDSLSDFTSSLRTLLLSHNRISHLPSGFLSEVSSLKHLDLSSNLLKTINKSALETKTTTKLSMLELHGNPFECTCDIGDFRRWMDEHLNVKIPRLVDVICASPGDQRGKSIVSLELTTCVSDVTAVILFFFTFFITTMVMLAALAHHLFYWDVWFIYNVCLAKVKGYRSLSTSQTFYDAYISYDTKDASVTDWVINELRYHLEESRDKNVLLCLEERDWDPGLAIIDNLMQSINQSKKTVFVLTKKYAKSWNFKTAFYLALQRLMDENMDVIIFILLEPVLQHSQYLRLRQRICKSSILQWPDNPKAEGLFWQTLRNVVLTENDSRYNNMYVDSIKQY
Description: as §1

human TLR9 = human TLR9 (Homo sapiens (Human), UniProt Q9NR96); assay: TLR9 inhibition reporter assay (HEK-Blue SEAP reporter, ODN2006 stimulation); conditions: read-out: TLR9 IC50; HEK-Blue cells overexpressing human TLR9, ODN2006 5 nM, SEAP reporter;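 note: SEAP reporter under IFN-β minimal promoter with five NF-κB and AP-1 sites, 22 h incubation, compounds 0.05 nM–50 µM, inhibition relative to agonist plus DMSO versus known inhibitor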
human TLR9, sequence (Q9NR96 26-1032): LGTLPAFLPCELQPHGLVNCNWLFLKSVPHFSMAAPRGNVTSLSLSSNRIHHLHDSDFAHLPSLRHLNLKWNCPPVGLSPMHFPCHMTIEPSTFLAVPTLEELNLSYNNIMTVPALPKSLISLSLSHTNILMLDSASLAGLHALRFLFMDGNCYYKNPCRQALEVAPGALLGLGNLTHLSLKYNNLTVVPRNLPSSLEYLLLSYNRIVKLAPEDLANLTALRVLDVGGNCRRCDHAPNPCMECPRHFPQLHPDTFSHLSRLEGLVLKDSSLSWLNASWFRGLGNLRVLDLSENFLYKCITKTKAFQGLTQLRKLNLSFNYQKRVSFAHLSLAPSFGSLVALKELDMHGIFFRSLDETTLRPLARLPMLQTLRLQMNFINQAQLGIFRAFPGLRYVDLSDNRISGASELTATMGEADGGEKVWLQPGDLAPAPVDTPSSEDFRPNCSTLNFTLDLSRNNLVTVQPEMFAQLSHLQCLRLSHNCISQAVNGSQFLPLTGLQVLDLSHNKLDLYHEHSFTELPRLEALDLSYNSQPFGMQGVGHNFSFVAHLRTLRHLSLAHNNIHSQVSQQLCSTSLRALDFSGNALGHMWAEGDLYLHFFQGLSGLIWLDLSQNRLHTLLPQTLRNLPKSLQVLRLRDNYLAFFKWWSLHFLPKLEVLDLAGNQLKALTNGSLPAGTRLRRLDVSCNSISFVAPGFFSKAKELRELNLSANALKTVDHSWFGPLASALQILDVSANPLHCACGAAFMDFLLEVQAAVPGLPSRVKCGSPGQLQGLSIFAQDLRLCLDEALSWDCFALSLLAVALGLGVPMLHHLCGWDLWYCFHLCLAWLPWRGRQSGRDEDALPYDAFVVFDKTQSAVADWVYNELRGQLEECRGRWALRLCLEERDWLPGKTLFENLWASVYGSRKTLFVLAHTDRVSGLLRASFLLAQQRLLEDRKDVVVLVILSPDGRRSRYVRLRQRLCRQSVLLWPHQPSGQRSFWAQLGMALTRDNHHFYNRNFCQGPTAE
Description: as §1

human TLR7, sequence (Q9NYK1 27-1049): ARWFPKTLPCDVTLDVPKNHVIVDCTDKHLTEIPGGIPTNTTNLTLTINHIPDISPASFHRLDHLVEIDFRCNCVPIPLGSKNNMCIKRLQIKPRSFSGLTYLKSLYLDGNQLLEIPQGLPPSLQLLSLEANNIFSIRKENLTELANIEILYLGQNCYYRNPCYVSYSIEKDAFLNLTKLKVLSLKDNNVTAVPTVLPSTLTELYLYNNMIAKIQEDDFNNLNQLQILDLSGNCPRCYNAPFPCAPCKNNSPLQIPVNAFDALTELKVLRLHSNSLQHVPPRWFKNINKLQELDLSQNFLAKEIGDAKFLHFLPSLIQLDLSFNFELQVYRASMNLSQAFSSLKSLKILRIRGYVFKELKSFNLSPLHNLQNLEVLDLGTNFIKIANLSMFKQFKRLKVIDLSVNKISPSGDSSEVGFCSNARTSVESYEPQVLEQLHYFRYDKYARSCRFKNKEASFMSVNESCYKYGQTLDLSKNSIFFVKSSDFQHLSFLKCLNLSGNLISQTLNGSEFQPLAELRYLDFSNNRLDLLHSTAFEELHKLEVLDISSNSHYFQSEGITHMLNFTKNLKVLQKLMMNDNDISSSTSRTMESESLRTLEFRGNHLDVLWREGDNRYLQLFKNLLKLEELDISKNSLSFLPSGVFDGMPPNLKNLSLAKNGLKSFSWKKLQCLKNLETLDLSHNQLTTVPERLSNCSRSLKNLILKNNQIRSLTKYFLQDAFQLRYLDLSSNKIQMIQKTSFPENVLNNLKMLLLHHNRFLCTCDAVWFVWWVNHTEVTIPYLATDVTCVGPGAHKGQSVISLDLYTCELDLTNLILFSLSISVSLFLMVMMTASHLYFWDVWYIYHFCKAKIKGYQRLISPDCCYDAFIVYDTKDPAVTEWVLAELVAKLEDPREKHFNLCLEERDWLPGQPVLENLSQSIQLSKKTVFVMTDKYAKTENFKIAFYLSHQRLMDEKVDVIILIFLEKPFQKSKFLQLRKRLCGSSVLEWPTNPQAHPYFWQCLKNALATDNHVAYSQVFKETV

Row | Compound | IC50 (human TLR7) [nM] | IC50 (human TLR8) [nM] | IC50 (human TLR9) [nM]
1 | CCc1c(-c2ccc(OC)c(OC)c2)[nH]c2ccc(C(=O)NCc3ccc(N)cc3)cc12 [Example 52, N-(4-aminobenzyl)-2-(3,4-dimethoxyphenyl)-3-ethyl-1H-indole-5-carboxamide] | 2380 | 243 | > 50000
2 | CCc1c(-c2ccc(OC)c(OC)c2)[nH]c2ccc(C(=O)NCc3ccco3)cc12 [Example 43, 2-(3,4-dimethoxyphenyl)-3-ethyl-N-(furan-2-ylmethyl)-1H-indole-5-carboxamide] | 2500 | 572 | > 50000
3 | Cc1cc(-c2[nH]c3ccc(C(C)C(=O)N4CC5CN(C)CC5C4)cc3c2C(C)C)ccn1 (stereo not drawn) [Example 197, 2-(3-isopropyl-2-(2-methylpyridin-4-yl)-1H-indol-5-yl)-1-(5-methylhexahydropyrrolo[3,4-c]pyrrol-2(1H)-yl)propan-1-one] | 200 | 130 | 3290

Other lines, results leading:

Row | IC50 (human TLR7) [nM] | IC50 (human TLR8) [nM] | IC50 (human TLR9) [nM] | Compound
4 | 63 | 110 | 1090 | Cc1cc(-c2[nH]c3ccc(C(C)(C)C(=O)NCCN)cc3c2C(C)C)ccn1 [Example 134, N-(2-aminoethyl)-2-(3-isopropyl-2-(2-methylpyridin-4-yl)-1H-indol-5-yl)-2-methylpropanamide]
5 | 147 | 306 | 1000 | Cc1cc(-c2[nH]c3ccc(C(C)(C)C(=O)N4CCCC5(CNC5)C4)cc3c2C(C)C)ccn1 [Example 180, 2-(3-isopropyl-2-(2-methylpyridin-4-yl)-1H-indol-5-yl)-2-methyl-1-(2,6-diazaspiro[3.5]nonan-6-yl)propan-1-one]
